# Assay results taken from EPA's ToxValDB 9.5.
# Several values for one entry are separate records, joined by “and”; a condition that tells them apart may be missing. Identical values can stand only once.
# Tested on: Mus musculus
# Settings: for NOEL / LOEL: drinking water
# [1] = developmental, duration: 54 days, oral, gavage, M/F, CD1, generation: F1, F1: Developmental: Eye: Eye Opening + F1: Developmental: Liver: Liver, Discolored + F1: Developmental: Whole Body: Fetus Or Pup/Neonate, …
# [2] = reproduction developmental, duration: 14 days, oral, gavage, F, Crl:CD-1 (ICR) BR, generation: P0, P0: Blood: Hematocrit (HCT) + P0: Blood: Hemoglobin (HGB) + P0: Blood: Lymphocyte + P0: Blood: Monocytes + P0: Blood: Neutrophils + P0: …
# [3] = reproduction developmental, duration: 14 days, oral, gavage, F, Crl:CD-1 (ICR) BR, generation: P0, P0: Liver: Hepatocellular Hypertrophy
# [4] = reproduction developmental, duration: 14 days, oral, gavage, M/F, Crl:CD-1 (ICR) BR, generation: P0, P0: Eye: Eye Opening + P0: Whole Body: Lactation Index + P0: Whole Body: Pup Mortality + P0: Whole Body: Pup Weight Relative to Litter
# [5] = reproduction developmental, duration: 54 days, oral, gavage, F, CD1, generation: P0, P0: Developmental: Uterus: Implantation + P0: Developmental: Whole Body: No. Male Pups per No. of Pups Sexed
# [6] = reproduction developmental, duration: 54 days, oral, gavage, F, CD1, generation: P0, P0: Developmental: Uterus: Implantation + P0: Developmental: Whole Body: No. Male Pups per No. of Pups Sexed + P0: Reproductive: Whole Body…
# [7] = reproduction developmental, duration: 109 days, oral, gavage, M, Crl:CD-1 (ICR) BR, generation: P0, P0: Blood: Hematocrit (HCT) + P0: Blood: Hemoglobin (HGB) + P0: Blood: Sorbitol Dehydrogenase (SDH), Blood + P0: Kidney: Blood Urea Nitrogen…
# [8] = reproduction developmental, duration: 109 days, oral, gavage, M, Crl:CD-1 (ICR) BR, generation: P0, P0: Hepatic: Liver: Alanine Aminotransferase (ALT), Blood + P0: Hepatic: Liver: Alkaline Phosphatase (ALP), Blood + P0: Hepatic: Liver: …
# [9] = reproduction developmental, duration: 109 days, oral, gavage, M, Crl:CD-1 (ICR) BR, generation: P0, P0: Liver: Hepatocellular Hypertrophy
# [10] = reproduction developmental, multiple, M, Crl:CD-1 (ICR) BR, generation: F1, F1: Reproductive: Prepuce: Preputial Separation + F1: Whole Body: Whole Body: Body Weight Change + F1: Whole Body: Whole Body: Feed …
# [11] = reproduction developmental, multiple, M, Crl:CD-1 (ICR) BR, generation: F1, F1: Whole Body: Whole Body: Body Weight Change + F1: Whole Body: Whole Body: Feed Consumption, Absolute
# [12] = reproduction developmental, oral, gavage, F, CD1, generation: P0, P0: Blood: Hematocrit (HCT) + P0: Blood: Hemoglobin (HGB) + P0: Blood: Lymphocyte + P0: Blood: Monocytes + P0: Blood: Neutrophils + P0: …
# [13] = reproduction developmental, oral, gavage, F, CD1, generation: P0, P0: Liver: Alanine Aminotransferase (ALT), Blood + P0: Liver: Alkaline Phosphatase (ALP), Blood + P0: Liver: Aspartate Aminotransferase (AST…
# [14] = reproduction developmental, oral, gavage, F, Crl:CD-1 (ICR) BR, generation: P0, P0: Hepatic: Liver: Alanine Aminotransferase (ALT), Blood + P0: Hepatic: Liver: Alkaline Phosphatase (ALP), Blood + P0: Hepatic: Liver: …
# [15] = reproduction developmental, oral, gavage, M, CD1, generation: P0, P0: Blood: Cholesterol (CHOL), Total + P0: Blood: Hematocrit (HCT) + P0: Blood: Hemoglobin (HGB) + P0: Blood: Lymphocyte + P0: Blood: …
# [16] = short-term, duration: 28 days, oral, M, BALB/c, activity cage (locomotion events, 60 min) + Morris water maze (escape time, acquisition, day 5) + Morris water maze (platform crossing, …
# [17] = short-term, duration: 28 days, oral, M, BALB/c, elevated plus maze (time in open arms) + forced swim (immobility time, last 4 min) + forced swim (immobility time, total 6 min)
# [18] = subchronic, duration: 8 weeks, oral, M, Kunming, Y-maze (number of training runs to meet 90% learning standard)
# [19] = subchronic, duration: 8 weeks, oral, M, Kunming, open field (grid entry, 3 minutes)
# [20] = subchronic, duration: 10 weeks, oral, ICR, Y-maze (number of training runs to meet 90% learning standard)
# [21] = subchronic, duration: 30 days, oral, F, Swiss Albino, rotarod (latency to fall, 25 rpm)
# [22] = subchronic, duration: 64 days, oral, M, C57BL/6, formalin test (flinches, early phase, 10 min) + formalin test (flinches, late phase, 60 min) + formalin test (flinches/10 min, 60 min) + …
smiles,measurement,setting,value
OCCC(F)(F)C(F)(F)C(F)(F)C(F)(F)C(F)(F)C(F)(F)F [2-(Perfluorohexyl)ethanol],LOAEL,[1],120 mg/kg-day
same,NOAEL,[1],25 mg/kg-day
same,NEL,"developmental, oral, gavage, M/F, CD1, generation: F1, F1: Eye: Eye Opening + F1: Liver: Liver, Discolored + F1: Prepuce or Vagina: Preputial Separation or Vaginal Patency + F1: Whole Body: Fetus…",25 mg/kg-day
same,LEL,"developmental, oral, gavage, M/F, CD1, generation: F1, F1: Eye: Eye Opening + F1: Liver: Liver, Discolored + F1: Whole Body: Fetus Or Pup/Neonate, Small + F1: Whole Body: Lactation Index + F1: …",100 mg/kg-day
same,LEL,[2],100 mg/kg-day
same,NEL,[2],25 mg/kg-day
same,NEL,"reproduction developmental, duration: 14 days, oral, gavage, F, Crl:CD-1 (ICR) BR, generation: P0, P0: Kidney: Kidney Weight, Absolute + P0: Liver: Liver Weight, Absolute + P0: Liver: Total Bilirubin (TBILI), Blood + P0: Liver: Total …",100 mg/kg-day
same,LEL,[3],5 mg/kg-day
same,NEL,[3],1 mg/kg-day
same,LEL,[4],100 mg/kg-day
same,NEL,[4],25 mg/kg-day
same,NEL,"reproduction developmental, duration: 14 days, oral, gavage, M/F, Crl:CD-1 (ICR) BR, generation: P0, P0: Whole Body: Live Pups Born + P0: Whole Body: Male Pups per Pups Sexed + P0: Whole Body: Viability Index",100 mg/kg-day
same,NEL,"reproduction developmental, duration: 42 days, multiple, F, Crl:CD-1 (ICR) BR, generation: P0, P0: Vagina: Vaginal Patency + P0: Whole Body: Body Weight Change + P0: Whole Body: Feed Consumption, Absolute",25 mg/kg-day
same,NEL,"reproduction developmental, duration: 42 days, multiple, M, Crl:CD-1 (ICR) BR, generation: P0, P0: Prepuce: Preputial Separation + P0: Whole Body: Body Weight Change + P0: Whole Body: Feed Consumption, Absolute",25 mg/kg-day
same,LOAEL,[5],120 mg/kg-day
same,NOAEL,[5],25 mg/kg-day
same,LOAEL,[6],120 mg/kg-day
same,NOAEL,[6],25 mg/kg-day
same,NOAEL,"reproduction developmental, duration: 54 days, oral, gavage, F, CD1, generation: P0, P0: Reproductive: Whole Body: Fertility Index + P0: Reproductive: Whole Body: Gestation Index + P0: Reproductive: Whole Body: Percent Mating",120 mg/kg-day
same,NOAEL,"reproduction developmental, duration: 54 days, oral, gavage, M/F, CD1, generation: F1, F1: Reproductive: Prepuce or Vagina: Preputial Separation or Vaginal Patency",120 mg/kg-day
same,LOAEL,"reproduction developmental, duration: 54 days, oral, gavage, M, CD1, generation: P0, P0: Reproductive: Whole Body: Fertility Index + P0: Reproductive: Whole Body: Percent Mating",120 mg/kg-day
same,LEL,[7],100 mg/kg-day
same,NEL,[7],25 mg/kg-day
same,NEL,"reproduction developmental, duration: 109 days, oral, gavage, M, Crl:CD-1 (ICR) BR, generation: P0, P0: Blood: Lymphocyte + P0: Blood: Monocytes + P0: Blood: Neutrophils + P0: Blood: Red Blood Cell (RBC) + P0: Blood: Reticulocytes + P0: …",100 mg/kg-day
same,LOAEL,[8],5 mg/kg-day
same,NOAEL,[8],1 mg/kg-day
same,LEL,[9],5 mg/kg-day
same,NEL,[9],1 mg/kg-day
same,NOAEL,"reproduction developmental, duration: 109 days, oral, gavage, M, Crl:CD-1 (ICR) BR, generation: P0, P0: Reproductive: Epididymis: Epididymis Weight, Absolute + P0: Reproductive: Epididymis: Epididymis Weight, Relative + P0: Reproductive: …",100 mg/kg-day
same,NOAEL,"reproduction developmental, multiple, M, Crl:CD-1 (ICR) BR, generation: F1, F1: Reproductive: Prepuce: Preputial Separation",100 mg/kg-day
same,LOAEL,[10],5 mg/kg-day
same,NOAEL,[10],1 mg/kg-day
same,LOAEL,[11],100 mg/kg-day
same,NOAEL,[11],25 mg/kg-day
same,NEL,"reproduction developmental, oral, gavage, F, CD1, generation: P0, P0: Blood: Calcium (CA), Blood + P0: Blood: Chloride (CL), Blood + P0: Blood: Globulin (G), Blood + P0: Blood: Glucose (GLU), Blood + P0: …",100 mg/kg-day
same,LEL,[12],100 mg/kg-day
same,NEL,[12],25 mg/kg-day
same,LEL,[13],25 mg/kg-day
same,NEL,[13],5 mg/kg-day
same,NEL,"reproduction developmental, oral, gavage, F, CD1, generation: P0, P0: Uterus: Implantation + P0: Whole Body: Fertility Index + P0: Whole Body: Gestation Index + P0: Whole Body: Male Pups per Pups Sexed + P0…",100 mg/kg-day
same,LOAEL,[14],5 mg/kg-day
same,NOAEL,[14],1 mg/kg-day
same,NEL,"reproduction developmental, oral, gavage, M/F, CD1, generation: F1, F1: Whole Body: Live Pups Born + F1: Whole Body: Viability Index",100 mg/kg-day
same,NEL,"reproduction developmental, oral, gavage, M, CD1, generation: P0, P0: Blood: Calcium (CA), Blood + P0: Blood: Globulin (G) + P0: Blood: Glucose (GLU) + P0: Blood: Inorganic Phosphorous (PHOS) + P0: Blood: …",100 mg/kg-day
same,LEL,[15],100 mg/kg-day
same,NEL,[15],25 mg/kg-day
same,NEL,"reproduction developmental, oral, gavage, M, CD1, generation: P0, P0: Whole Body: Fertility Index + P0: Whole Body: Percent Mating",100 mg/kg-day
[F-].[Na+] [Sodium fluoride],NOEL,"developmental, oral, M, Kunming, generation: F1, F1: activity chamber (ambulation events) + F1: activity chamber (rearing events) + F1: novel object test (adaptation phase memory index) + …",18.4 mg/kg-day
same,LOEL,"developmental, oral, M, NMRI, generation: F1, F1: maze test (completion time, assessment 1) + F1: maze test (completion time, assessment 2)",0.113 mg/day
same,NOEL,"short-term, duration: 28 days, oral, M, BALB/c, activity cage (locomotion events, 10 min) + activity cage (rearing events, 10 min) + activity cage (rearing events, 60 min) + elevated plus …",1.16 mg/kg-day
same,LOEL,[16],0.58 mg/kg-day
same,NOEL,[16],0.23 mg/kg-day
same,LOEL,[17],1.16 mg/kg-day
same,NOEL,[17],0.58 mg/kg-day
same,NOEL,"subchronic, duration: 8 weeks, oral, M, Kunming, Y-maze (% of correct responses 24 hrs after mastering learning standard)",1.16 mg/kg-day
same,LOEL,[18],0.58 mg/kg-day and 0.7 mg/kg-day
same,NOEL,[18],0.12 mg/kg-day and 0.35 mg/kg-day
same,NOEL,"subchronic, duration: 8 weeks, oral, M, Kunming, open field (grid entry, 1 minute) + open field (rearing events) + open field (standing against wall events) + Y-maze (percent correct …",1.39 mg/kg-day
same,LOEL,[19],1.39 mg/kg-day
same,NOEL,[19],0.7 mg/kg-day
same,NOEL,"subchronic, duration: 10 weeks, oral, ICR, Y-maze (% of correct responses 24 hrs after mastering learning standard)",1.19 mg/kg-day
same,LOEL,[20],1.19 mg/kg-day
same,NOEL,[20],0.59 mg/kg-day
same,NOEL,"subchronic, duration: 30 days, oral, F, Swiss Albino, elevated plus maze (time to move from open to closed arm, trial 1) + open field (fecal matter) + open field (grooming time) + open field (…",24.5 mg/kg-day
same,LOEL,"subchronic, duration: 30 days, oral, F, Swiss Albino, elevated plus maze (time to move from open to closed arm, trial 2) + forced swim (immobility time) + motor coordination (akinesia, latency …",12.3 mg/kg-day
same,LOEL,"subchronic, duration: 30 days, oral, F, Swiss Albino, maze test (latency) + motor coordination (akinesia, latency time) + motor coordination (catalepsy, latency time) + swim test (total swim …",14.7 mg/kg-day
same,LOEL,[21],24.5 mg/kg-day
same,NOEL,[21],12.3 mg/kg-day
same,LOEL,"subchronic, duration: 64 days, oral, M, C57BL/6, Von Frey hairs test (relative frequency of paw withdrawal)",5.79 mg/kg-day
same,LOEL,[22],11.6 mg/kg-day
same,NOEL,[22],5.79 mg/kg-day
same,NOEL,"subchronic, duration: 64 days, oral, M, C57BL/6, formalin test (licking time, late phase, 60 min) + formalin test (licking time/10 min, 60 min) + open field (total distance moved, 1 hr) + …",11.6 mg/kg-day
